Literature values, collected in patent US7807599B2, “Hydroconversion processes employing multi-metallic catalysts and method for making thereof” (Chevron U. S. A. Inc., priority 2007, dated 2010).

Tested on: rats
Settings: as single oral dose to rats

## O=CC(=O)O [glyoxylic]
  LD50: 3000 mg/kg
